Measured values as given in ChEMBL document CHEMBL1143799, “Synthesis and primary cytotoxicity evaluation of new imidazo[2,1-b]thiazole derivatives” (2007).

Key:
Type in all cases: functional
[1] = system: RXF 393; assay: Growth inhibition of human RXF393 cells after 48 hrs by SRB protein assay; settings: RXF 393, 48 h
[2] = system: SNB-19; assay: Growth inhibition of human SNB19 cells after 48 hrs by SRB protein assay; settings: SNB-19, 48 h
[3] = system: SF-268; assay: Growth inhibition of human SF268 cells after 48 hrs by SRB protein assay; settings: SF-268, 48 h
[4] = system: SK-MEL-5; assay: Growth inhibition of human SK-MEL-5 cells after 48 hrs by SRB protein assay; settings: SK-MEL-5, 48 h
[5] = system: NCI-H322M; assay: Growth inhibition of human NCI-H322M cells after 48 hrs by SRB protein assay
[6] = system: HCT-116; assay: Growth inhibition of human HCT116 cells after 48 hrs by SRB protein assay; settings: HCT-116, 48 h
[7] = system: T47D; assay: Growth inhibition of human T47D cells after 48 hrs by SRB protein assay
[8] = system: U-251; assay: Growth inhibition human U251 of cells after 48 hrs by SRB protein assay; settings: U-251, 48 h
[9] = system: SF-539; assay: Growth inhibition of human SF539 cells after 48 hrs by SRB protein assay; settings: SF-539, 48 h
[10] = system: DU-145; assay: Growth inhibition of human DU145 cells after 48 hrs by SRB protein assay; settings: DU-145, 48 h
[11] = system: SNB-75; assay: Growth inhibition of human SNB75 cells after 48 hrs by SRB protein assay; settings: SNB-75, 48 h
[12] = system: M14; assay: Growth inhibition of human M14 cells after 48 hrs by SRB protein assay; settings: M14, 48 h
[13] = system: UACC-257; assay: Growth inhibition of human UACC257 cells after 48 hrs by SRB protein assay; settings: UACC-257, 48 h
[14] = system: LOX IMVI; assay: Growth inhibition of human LOX IMVI cells after 48 hrs by SRB protein assay
[15] = system: HCC 2998; assay: Growth inhibition of human HCC2998 cells after 48 hrs by SRB protein assay; settings: HCC 2998, 48 h
[16] = system: SK-OV-3; assay: Growth inhibition of human SK-OV-3 cells after 48 hrs by SRB protein assay; settings: SK-OV-3, 48 h
[17] = system: UO-31; assay: Growth inhibition of human UO31 cells after 48 hrs by SRB protein assay; settings: UO-31, 48 h
[18] = system: EKVX; assay: Growth inhibition of human EKVX cells after 48 hrs by SRB protein assay
[19] = Growth inhibition of human 786O cells after 48 hrs by SRB protein assay; settings: 786-0, 48 h
[20] = system: ACHN; assay: Growth inhibition of human ACHN cells after 48 hrs by SRB protein assay
[21] = system: HT-29; assay: Growth inhibition of human HT29 cells after 48 hrs by SRB protein assay; settings: HT-29, 48 h
[22] = system: PC-3; assay: Growth inhibition of human PC3 cells after 48 hrs by SRB protein assay; settings: PC-3, 48 h
[23] = system: HOP-62; assay: Growth inhibition of human HOP62 cells after 48 hrs by SRB protein assay; settings: HOP-62, 48 h
[24] = system: MDA-MB-231; assay: Growth inhibition of MDA-MB-231 cells after 48 hrs by SRB protein assay; settings: Homo sapiens, MDA-MB-231, 48 h
[25] = system: Hs-578T; assay: Growth inhibition of human HS578T cells after 48 hrs by SRB protein assay
[26] = system: COLO 205; assay: Growth inhibition of human COLO205 cells after 48 hrs by SRB protein assay; settings: COLO 205, 48 h
[27] = system: OVCAR-8; assay: Growth inhibition of human OVCAR8 cells after 48 hrs by SRB protein assay; settings: OVCAR-8, 48 h
[28] = system: SN12C; assay: Growth inhibition of human SN12C cells after 48 hrs by SRB protein assay
[29] = system: SW-620; assay: Growth inhibition of human SW620 cells after 48 hrs by SRB protein assay; settings: SW-620, 48 h
[30] = system: OVCAR-3; assay: Growth inhibition of human OVCAR-3 cells after 48 hrs by SRB protein assay; settings: OVCAR-3, 48 h
[31] = system: HCT-15; assay: Growth inhibition of human HCT15 cells after 48 hrs by SRB protein assay; settings: HCT-15, 48 h
[32] = system: CCRF-CEM; assay: Growth inhibition of human CCRF-CEM cells after 48 hrs by SRB protein assay
[33] = system: OVCAR-5; assay: Growth inhibition of human OVCAR5 cells after 48 hrs by SRB protein assay; settings: OVCAR-5, 48 h
[34] = system: A549; assay: Growth inhibition of human A549 cells after 48 hrs by SRB protein assay; settings: A549, 48 h
[35] = system: SK-MEL-28; assay: Growth inhibition of human SK-MEL-28 cells after 48 hrs by SRB protein assay; settings: SK-MEL-28, 48 h
[36] = system: CAKI-1; assay: Growth inhibition of human CAKI1 cells after 48 hrs by SRB protein assay; settings: CAKI-1, 48 h
[37] = system: NCI-H460; assay: Growth inhibition of human NCI-H460 cells after 48 hrs by SRB protein assay; settings: NCI-H460, 48 h
[38] = system: MCF7; assay: Growth inhibition of human MCF7 cells after 48 hrs by SRB protein assay; settings: MCF7, 48 h
[39] = system: BT-549; assay: Growth inhibition of human BT549 cells after 48 hrs by SRB protein assay; settings: BT-549, 48 h
[40] = system: UACC-62; assay: Growth inhibition of human UACC62 cells after 48 hrs by SRB protein assay; settings: UACC-62, 48 h

## O=C(Cc1csc2nc(-c3ccc(Br)cc3)cn12)N/N=C/c1ccccc1O
[1]
  GI50: 38 µM
[1]; read-out: Log TGI (converted)
  TGI: 63.1 µM
[2]
  GI50: 6.76 µM
[2]; read-out: Log TGI (converted)
  TGI: 25.1 µM
[3]
  GI50: > 100 µM
[3]; read-out: Log TGI (converted)
  TGI: > 100 µM
[4]
  GI50: 2.95 µM
[4]; read-out: Log TGI (converted)
  TGI: 10.7 µM
[5]
  GI50: 2.14 µM
[5]; read-out: Log TGI (converted)
  TGI: 10.7 µM
[6]
  GI50: 3.24 µM
[6]; read-out: Log TGI (converted)
  TGI: 12.3 µM
[7]
  GI50: 5.25 µM
[7]; read-out: Log TGI (converted)
  TGI: 23.4 µM
[8]
  GI50: 3.63 µM
[8]; read-out: Log TGI (converted)
  TGI: 15.1 µM
[9]
  GI50: 3.55 µM
[9]; read-out: Log TGI (converted)
  TGI: 11.7 µM
[10]
  GI50: 2.88 µM
[10]; read-out: Log TGI (converted)
  TGI: 13.8 µM
[11]
  GI50: 12.9 µM
[11]; read-out: Log TGI (converted)
  TGI: 32.4 µM
[12]
  GI50: 2.57 µM
[12]; read-out: Log TGI (converted)
  TGI: 7.76 µM
[13]
  GI50: 3.72 µM
[13]; read-out: Log TGI (converted)
  TGI: 11.5 µM
[14]
  GI50: 3.47 µM
[14]; read-out: Log TGI (converted)
  TGI: 12.9 µM
[15]
  GI50: 3.47 µM
[15]; read-out: Log TGI (converted)
  TGI: 12.6 µM
[16]
  GI50: 12.9 µM
[16]; read-out: Log TGI (converted)
  TGI: 30.2 µM
[17]
  GI50: 7.08 µM
[17]; read-out: Log TGI (converted)
  TGI: > 100 µM
[18]
  GI50: 3.89 µM
[18]; read-out: Log TGI (converted)
  TGI: 19.1 µM
[19]
  GI50: 4.68 µM
[19]; read-out: Log TGI (converted)
  TGI: 17.8 µM
[20]
  GI50: 1.58 µM
[20]; read-out: Log TGI (converted)
  TGI: 6.31 µM
[21]
  GI50: 6.03 µM
[21]; read-out: Log TGI (converted)
  TGI: 19.1 µM
[22]
  GI50: 4.27 µM
[22]; read-out: Log TGI (converted)
  TGI: 16.6 µM
[23]
  GI50: 3.89 µM
[23]; read-out: Log TGI (converted)
  TGI: 14.8 µM
[24]
  GI50: 3.24 µM
[24]; read-out: Log TGI (converted)
  TGI: 17 µM
[25]
  GI50: 13.5 µM
[25]; read-out: Log TGI (converted)
  TGI: 42.7 µM
[26]
  GI50: 5.13 µM
[26]; read-out: Log TGI (converted)
  TGI: 22.9 µM
[27]
  GI50: 2.29 µM
[27]; read-out: Log TGI (converted)
  TGI: 12.3 µM
[28]
  GI50: 3.31 µM
[28]; read-out: Log TGI (converted)
  TGI: 15.8 µM
[29]
  GI50: 3.98 µM
[29]; read-out: Log TGI (converted)
  TGI: 17.4 µM
[30]
  GI50: 3.24 µM
[30]; read-out: Log TGI (converted)
  TGI: 15.1 µM
[31]
  GI50: 0.955 µM
[31]; read-out: Log TGI (converted)
  TGI: 17.4 µM
[32]
  GI50: 1.82 µM
[32]; read-out: Log TGI (converted)
  TGI: 8.32 µM
[33]
  GI50: 5.5 µM
[33]; read-out: Log TGI (converted)
  TGI: 31.6 µM
[34]
  GI50: 6.17 µM
[34]; read-out: Log TGI (converted)
  TGI: 24 µM
[35]
  GI50: 12 µM
[35]; read-out: Log TGI (converted)
  TGI: 24 µM
[36]
  GI50: 0.398 µM
[36]; read-out: Log TGI (converted)
  TGI: 2.4 µM
[37]
  GI50: 15.8 µM
[37]; read-out: Log TGI (converted)
  TGI: > 100 µM
[38]
  GI50: 13.2 µM
[38]; read-out: Log TGI (converted)
  TGI: > 100 µM
[39]
  GI50: 10 µM
[39]; read-out: Log TGI (converted)
  TGI: 22.4 µM
[40]
  GI50: 2.09 µM
[40]; read-out: Log TGI (converted)
  TGI: 7.24 µM
